Patent US20090081197A1 (Palatin Technologies, Inc., priority 2007, published 2009)
Non-standard residues stand in square brackets, D forms with d. Residues, ends and D or L forms follow the SMILES beside them. *: point of attachment. dPhe(4-Cl) = N[C@H](Cc1ccc(Cl)cc1)C(=O)O; Ahp = NCCCCCCC(=O)O; Bn = c1ccc(C*)cc1

Legend:
MC4-R [1] = molecular target: T1, MC4-R (Homo sapiens, UniProt P32245); test: cAMP agonist stimulation, high receptor density system (10 ng/mL doxycycline); conditions: for Efficacy/Intrinsic Activity: 10 ng/mL doxycycline, high receptor density hMC4-R system, NDP-α-MSH maximal cAMP = 1.0
[2] = IV and IP food intake and body weight change, rats; assay type: in vivo; conditions: rat, IV
Summary of the method: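 Male Sprague-Dawley rats dosed IV (0.5-3, up to 10 mg/kg) or IP (0.5-10, up to 50 mg/kg); male C57BL/6 mice dosed IP. Change in food intake and body weight over 24 h post-dose versus 1-week vehicle baseline, with 48 and 72 h reversal checks.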

[3] = Penile erection induction in male rats; assay type: in vivo; conditions: rat
Summary of the method: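 Male Sprague-Dawley rats (200-250 g), groups of 4-8, dosed IV or ICV at various doses and observed individually for penile erections. Only statistically relevant increases over vehicle-control mean PEs count as induction; IV responses below 1.0 PEs/rat treated as equivocal, some retested ICV.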

MC4-R [4] = molecular target: T1, MC4-R; test: cAMP functional activity assay in HEK-293 cells, normal system; assay type: cell-based; parameters: expressed in transfected cells; host or cells: HEK-293; conditions: for intrinsic activity at MC4-R in a normal system: normal receptor density system, NDP-α-MSH = 1.0
MC4-R [5] = molecular target: T1, MC4-R; test: cAMP agonist stimulation, low receptor density system (0.1 ng/mL doxycycline); conditions: 0.1 ng/mL doxycycline, low receptor density hMC4-R system; NDP-α-MSH maximal cAMP = 1.0
MC1-R = molecular target: T2, MC1-R (Mus musculus, UniProt Q01727); test: Competitive inhibition assay using [I^125]-NDP-α-MSH, B-16 mouse melanoma cell membranes; assay type: binding; conditions: for inhibition at 1 µM: 1 μM test compound, read-out: Inhibition at 1 μM (NDP-α-MSH) In Normal System, MC1-R
T2 construct: B-16 mouse melanoma cells (containing MC1-R); endogenous in cells
Summary of the method: (§1)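 Tracer was 0.4 nM for MC3-R and MC5-R, 0.2 nM for MC4-R and 0.1 nM for MC1-R. Bound radioactivity was gamma-counted after filtration; values are triplicate means, with results below 0% reported as 0%.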

MC3-R = MC3-R (Homo sapiens, UniProt P41968); test: Competitive inhibition assay using [I^125]-NDP-α-MSH, hMC3-R membranes; assay type: binding; parameters: expressed in transfected cells; conditions: 1 μM test compound; read-out: Inhibition at 1 μM (NDP-α-MSH) In Normal System, MC3-R
Summary of the method: as §1

MC4-R [6] = molecular target: T1, MC4-R; test: Competitive inhibition assay using [I^125]-NDP-α-MSH, hMC4-R membranes; assay type: binding; parameters: host or cells: TREx-293 (HEK-293 stably expressing Tet repressor); conditions: 1 μM test compound; read-out: Inhibition at 1 μM (NDP-α-MSH) In Normal System, MC4-R
Summary of the method: as §1

T2 sequence (Q01727 whole entry): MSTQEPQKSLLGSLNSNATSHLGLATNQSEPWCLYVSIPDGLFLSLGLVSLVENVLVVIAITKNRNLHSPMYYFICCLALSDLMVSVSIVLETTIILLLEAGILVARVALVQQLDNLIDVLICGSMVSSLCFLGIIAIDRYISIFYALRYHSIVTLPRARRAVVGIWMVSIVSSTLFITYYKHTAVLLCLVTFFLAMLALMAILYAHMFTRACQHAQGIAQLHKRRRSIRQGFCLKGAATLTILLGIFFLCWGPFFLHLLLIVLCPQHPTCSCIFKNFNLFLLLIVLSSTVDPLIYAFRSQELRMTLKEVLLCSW
T1 sequence (P32245 whole entry): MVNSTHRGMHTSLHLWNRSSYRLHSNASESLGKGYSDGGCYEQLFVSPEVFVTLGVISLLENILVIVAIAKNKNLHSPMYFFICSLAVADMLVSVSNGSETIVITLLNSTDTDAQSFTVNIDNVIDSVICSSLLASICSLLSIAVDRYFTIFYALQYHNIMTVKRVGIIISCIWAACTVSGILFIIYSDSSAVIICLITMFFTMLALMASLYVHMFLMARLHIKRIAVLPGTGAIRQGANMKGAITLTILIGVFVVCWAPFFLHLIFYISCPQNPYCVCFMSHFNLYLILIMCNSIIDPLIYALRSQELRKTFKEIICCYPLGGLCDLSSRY
Chain of MC3-R (P41968 whole entry): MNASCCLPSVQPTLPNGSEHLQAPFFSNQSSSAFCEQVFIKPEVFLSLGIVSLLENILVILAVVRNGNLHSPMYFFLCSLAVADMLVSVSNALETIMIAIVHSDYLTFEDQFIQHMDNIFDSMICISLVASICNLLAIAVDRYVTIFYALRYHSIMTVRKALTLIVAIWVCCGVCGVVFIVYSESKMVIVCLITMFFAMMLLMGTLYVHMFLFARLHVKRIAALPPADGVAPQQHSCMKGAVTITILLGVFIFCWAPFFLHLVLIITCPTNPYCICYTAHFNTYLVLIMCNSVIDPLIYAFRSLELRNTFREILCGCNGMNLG

Structure (SMILES)	EC50 (MC4-R [1])	Efficacy/Intrinsic Activity (MC4-R [1])	24 hour decrease in food intake ([2]; dose not stated)	decrease in body weight ([2]; dose not stated, 24 hours)	Penile Erection IV ([3]; IV)	penile erection response ([3]; IV)	intrinsic activity at MC4-R in a normal system (MC4-R [4])	Efficacy/Intrinsic Activity (MC4-R [5])	inhibition at 1 µM (MC1-R)	inhibition at 1 µM (MC3-R)	inhibition at 1 µM (MC4-R [6])	maximal decrease in food intake ([2]; 10 mg/kg, 24 hours)	Penile Erection ICV ([3]; ICV)	penile erection response ([3]; ICV, 0.3 to 3 nmole)	penile erection response ([3]; IV, 0.3 to 30 μg/kg)	functional status at MC4-R in cAMP assay (MC4-R [4]; normal system, 1 μM concentration where stated)	Ki (MC1-R; read-out: Ki (nM) (NDP-α-MSH) In Normal System, MC1-R)
N=C(N)NCCC[C@H](NC(=O)[C@@H](Cc1ccc(Cl)cc1)NC(=O)[C@H](COCc1ccccc1)NC(=O)CCCCCCN)C(=O)N[C@@H](Cc1c[nH]c2ccccc12)C(=O)N[C@@H](CC(=O)O)C(N)=O [Example 13, NH2—(CH2)6—C(═O)-Ser(Bzl)-D-Phe(4-Cl)-Arg-Trp-Asp-NH2] (H-[Ahp]S(Bn)[dPhe(4-Cl)]RWD-NH2)	0.034 µM	0.72	6%	1%	No	no penile erections	0.5	None	35%	73%	98%	–	–	–	–	–	–
N=C(N)NCCC[C@H]1CN(CCc2ccc3ccccc3c2)CCN1C(=O)[C@H](N)Cc1ccc(Cl)cc1Cl [Example 17, N-{3-[(S)-1-[(R)-2-Amino-3-(2,4-dichloro-phenyl)-propionyl]-4-(2-naphthalen-2-yl-ethyl)-piperazin-2-yl]-propyl}-guanidine]	0.847 µM	0.67	–	–	No	–	0.4	None	6%	87%	99%	91%	No	no penile erection response	no penile erection response	partial agonist (intrinsic activity between 0.1 (10%) and 0.7 (70%) is classified as a partial agonist)	1200 nM
